Molecular target: T1, IV-cPLA(2) in activated U937 cells (Homo sapiens, UniProt P47712)
T1 sequence (P47712 1-749): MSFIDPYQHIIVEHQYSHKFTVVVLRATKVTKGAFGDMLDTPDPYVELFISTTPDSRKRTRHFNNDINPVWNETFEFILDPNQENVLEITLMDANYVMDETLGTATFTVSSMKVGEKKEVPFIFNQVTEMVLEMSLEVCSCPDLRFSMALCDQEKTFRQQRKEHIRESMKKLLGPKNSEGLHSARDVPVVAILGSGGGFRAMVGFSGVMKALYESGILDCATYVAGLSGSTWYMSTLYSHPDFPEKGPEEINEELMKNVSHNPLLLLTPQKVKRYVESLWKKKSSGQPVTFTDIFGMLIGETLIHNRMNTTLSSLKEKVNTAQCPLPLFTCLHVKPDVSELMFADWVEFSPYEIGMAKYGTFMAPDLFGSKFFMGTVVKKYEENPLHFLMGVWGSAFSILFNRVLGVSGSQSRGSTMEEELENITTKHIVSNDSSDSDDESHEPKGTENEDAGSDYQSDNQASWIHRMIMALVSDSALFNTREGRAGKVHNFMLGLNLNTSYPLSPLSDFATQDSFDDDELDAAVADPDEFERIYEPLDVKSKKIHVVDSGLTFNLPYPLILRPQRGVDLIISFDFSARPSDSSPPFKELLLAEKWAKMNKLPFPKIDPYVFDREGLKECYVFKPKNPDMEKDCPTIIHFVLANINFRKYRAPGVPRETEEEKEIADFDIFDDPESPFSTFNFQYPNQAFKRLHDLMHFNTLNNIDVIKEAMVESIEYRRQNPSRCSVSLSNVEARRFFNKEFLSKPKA
Assay: PLA(2) activity: hydrolysis of bis-BODIPY FL C11-PC in TPA/A23187-activated U937 cells
Format: cell-based
Conditions: U-937; Concentration 10 μM; inflammatory activated PLA(2) activity, U937 cells
Description: The PLA(2) activity was measured by quantitatively analyzing the fluorescent product of hydrolysis from 1,2-bis-(4,4-difluoro-5,7-dimethyl-4-bora-3a,4a-diaza-s-indecene-3-undecanoyl)-sn-glycero-3-phosphocholine (hereinafter referred to bis-BODIPY®FL C11-PC, Molecular probes, Inc., B-7701) using activated U937 cells (human monoblastic lymphoma cell line) by inflammatory stimulus (Meshulam, T. et al., The journal of Biological Chemistry 267 (30): 21465–21470 (1992); and Solito, E. et al., British Journal of Pharmacology 124: 1675–1683(1998).). The substrate bis-BODIPY®FL C11-PC is incorporated into cellular membranes, the proximity of the BODIPY®FL fluorophores on adjacent phospholipid acyl chains causes fluorescence self-quenching. Separation of the fluorophores upon hydrolytic cleavage of one of the acyl chains by PLA(1) or the PLA(2) results in increased fluorescence. […]
The test compound was dissolved with DMSO at 30 mM, and the solution diluted with either DMSO or the Assay medium before addition into the reaction mixture. […] The increased fluorescence of the hydrolysis product by the enzyme was determined by measuring the fluorescence emission intensity at 535 nm with excitation at 485 nm from the top side of each plate at 37° C., using a Multi Functional Microplate Reader SPECTRA FLUOR PLUS (TECAN Austria GmbH). […]

An inhibition at 10 µM of 99% was found for CCOC(=O)C(=C1N[C@@H](C)[C@H](c2ccc(Cl)cc2)S1)[N+](=O)[O-] (relative stereo) [Compound 2-29, Trans-5-(4-chlorophenyl)-4-methyl-2-(1-ethoxycarbonyl-1-nitromethylene)-thiazolidine] in this work.

— patent US7189751B2, “Oxa(thia)zolidine compounds, process for preparation thereof and anti-inflammatory agents” (Nippon Soda Co., Ltd., priority 2001, dated 2007)
